In patent EP4741386A1 (Jiangsu Yahong Meditech Co., Ltd., priority 2023, dated 2025):

Tests used:
[1] = target: T1, Recombinant human His6-USP1/His6-UAF1 complex protein (Homo sapiens, UniProt O94782); assay: In vitro inhibitory activity against USP1 (Ubiquitin Rhodamine 110 fluorescence detection, 384-well plate); format: biochemical; settings: Ub-Rho substrate, 1 hour pre-incubation, read after 30 minutes
T1 construct: His6; purchased R&D E-568-050
In short: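 Fluorescence assay measuring inhibition of recombinant human His6-USP1/His6-UAF1 complex with Ubiquitin-Rhodamine 110 substrate. Compounds held as 50 mM stocks in 100% DMSO and dispensed by acoustic transfer into modified Tris assay buffer.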

[2] = test system: MDA-MB-436; assay: CTG experiment for cell viability (CellTiter-Glo, 96-well plate, 7 days); format: cell-based; settings: Homo sapiens, MDA-MB-436, 168 h, MDA-MB-436 cells, 7 days culture with compound
In short: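 MDA-MB-436 cells in DMEM were plated in 96-well format, treated with compounds, and cultured 7 days at 37°C. After removing the medium, cells were given PBS plus CellTiter-Glo reagent, incubated 10 min at room temperature, and luminescence was read. Curves were fitted as for the enzyme assay.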

T1 sequence (O94782 whole entry): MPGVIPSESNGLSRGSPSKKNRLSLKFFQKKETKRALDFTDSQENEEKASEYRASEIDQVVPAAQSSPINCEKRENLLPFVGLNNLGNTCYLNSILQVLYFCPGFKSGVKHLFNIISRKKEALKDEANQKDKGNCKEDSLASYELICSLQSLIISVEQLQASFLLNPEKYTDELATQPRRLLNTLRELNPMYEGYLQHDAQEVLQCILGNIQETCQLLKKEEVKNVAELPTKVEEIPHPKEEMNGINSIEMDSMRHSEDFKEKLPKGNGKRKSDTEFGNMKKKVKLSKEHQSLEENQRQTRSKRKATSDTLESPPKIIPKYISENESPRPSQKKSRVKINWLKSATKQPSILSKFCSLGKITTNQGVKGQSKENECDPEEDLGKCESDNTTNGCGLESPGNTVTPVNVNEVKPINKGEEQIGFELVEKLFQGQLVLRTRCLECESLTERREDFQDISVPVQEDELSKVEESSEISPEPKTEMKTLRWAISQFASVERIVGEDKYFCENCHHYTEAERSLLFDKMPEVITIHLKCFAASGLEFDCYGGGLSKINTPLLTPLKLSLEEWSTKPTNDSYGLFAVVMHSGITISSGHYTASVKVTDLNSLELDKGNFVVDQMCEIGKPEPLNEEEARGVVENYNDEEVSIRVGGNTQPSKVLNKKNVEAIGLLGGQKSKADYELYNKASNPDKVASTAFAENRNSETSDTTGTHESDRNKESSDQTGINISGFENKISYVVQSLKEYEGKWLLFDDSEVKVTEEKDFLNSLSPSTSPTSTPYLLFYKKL
T1 sequence (Q8TAF3 whole entry partner): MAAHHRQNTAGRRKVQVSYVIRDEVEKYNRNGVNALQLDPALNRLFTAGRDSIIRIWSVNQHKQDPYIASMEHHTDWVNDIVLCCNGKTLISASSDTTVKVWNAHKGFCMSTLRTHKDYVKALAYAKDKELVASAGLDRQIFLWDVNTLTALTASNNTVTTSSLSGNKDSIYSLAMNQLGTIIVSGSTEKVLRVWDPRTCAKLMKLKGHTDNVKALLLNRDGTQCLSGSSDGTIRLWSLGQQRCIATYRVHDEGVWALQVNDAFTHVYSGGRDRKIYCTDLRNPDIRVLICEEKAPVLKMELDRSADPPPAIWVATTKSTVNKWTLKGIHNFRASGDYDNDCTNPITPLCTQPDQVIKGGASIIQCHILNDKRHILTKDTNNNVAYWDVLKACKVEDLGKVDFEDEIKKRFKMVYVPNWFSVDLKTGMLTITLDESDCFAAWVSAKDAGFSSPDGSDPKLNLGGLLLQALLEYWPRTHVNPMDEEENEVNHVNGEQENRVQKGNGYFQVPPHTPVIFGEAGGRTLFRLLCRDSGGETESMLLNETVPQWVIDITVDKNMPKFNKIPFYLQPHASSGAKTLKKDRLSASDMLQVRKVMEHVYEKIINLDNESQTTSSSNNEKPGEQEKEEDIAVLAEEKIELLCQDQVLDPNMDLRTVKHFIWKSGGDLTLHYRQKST

Compound | IC50 [1] [nM] | IC50 [2] [nM]
COc1cnc(-c2c(OC)ncnc2C2CC2F)nc1NCC12CCC(c3nc(C(F)(F)F)cn3C)(CC1)CC2 (centres unmarked) [Example S18, 4'-(2-Fluorocyclopropyl)-5,6'-dimethoxy-N-((4-(1-methyl-4-(trifluoromethyl)-1 H-imidazol-2-yl)bicyclo[2.2.2]oct-1-yl)methyl)-[2,5'-bipyrimidin]-4-amine] | 12 | 10.7
COc1cnc(-c2c(OC)ncnc2C2CC2(F)F)nc1N(C)CC1CCC(c2nc(C(F)(F)F)cn2C)CC1 [Example S49, 4'-(2,2-difluorocyclopropyl)-5,6'-dimethoxy-N-methyl-N-((1R,4R)-4-(1-methyl-4-(trifluoromethyl)-1H-imidazol-2-yl)cyclohexyl)methyl)-[2,5'-bipyrimidin]-4-amine] | 3.1 | 0.7
c1ccc(-c2ccc(CNc3nc(-c4cccnc4C4CC4)nc4ccoc34)cc2)nc1 [Example 155, 2-(2-Cyclopropylpyridin-3-yl)-N-(4-(pyridin-2-yl)benzyl)furo[3,2-d]pyrimidin-4-amine] | 12 | 85.7
Cc1noc(C(C)C)c1-c1ncc(OC(F)F)c(NCc2ccc(-c3nc(C(F)(F)F)cn3C)cc2)n1 [Example 190, 5-(Difluoromethoxy)-2-(5-isopropyl-3-methylisoxazol-4-yl)-N-(4-(1-methyl-4-(trifluoromethyl)-1H-imidazol-2-yl)benzyl)pyrimidin-4-amine] | 33 | 339
CC(C)c1ccccc1-c1nc(NCc2ccc(-c3nc(C(F)(F)F)cn3C)cc2)c2ncccc2n1 [Example 40, 2-(2-Isopropylphenyl)-N-(4-(1-methyl-4-(trifluoromethyl)-1H-imidazol-2-yl)benzyl)pyrido[3,2-d]pyrimidin-4-amine] | 2.3 | 21.4
COc1cnc(-c2c(OC)ncnc2C2CC2F)nc1N(C)C[C@H]1CC[C@H](c2nc(C(F)(F)F)cn2C)CC1 (some centres unmarked) [Example S35] | 6.8 | 3.5
CC(C)n1ncc(Cl)c1-c1nc(NCc2ccc(-c3ccccn3)cc2)c2occc2n1 [Example 166, 2-(4-Chloro-1-isopropyl-1H-pyrazol-5-yl)-N-(4-(pyridin-2-yl)benzyl)furo[3,2-d]pyrimidin-4-amine] | 2.1 | 41.4
COc1cnc(-c2c(C)cnn2C(C)C)nc1N(C)Cc1ccc(-n2nc(C(F)(F)F)cc2C)cc1 [Example 201, 2-(1-Isopropyl-4-methyl-1H-pyrazol-5-yl)-5-methoxy-N-methyl-N-(4-(5-methyl-3-(trifluoromethyl)-1H-pyrazol-1-yl)benzyl)pyrimidin-4-amine] | 12 | 40.5
COc1cnc(-c2c(OC)ncnc2C2CC2)nc1NCC12CCC(c3nc(C(F)(F)F)cn3C)(CC1)OC2 [Example 210] | 85 | 169
Cc1cc(C(F)(F)F)nn1-c1ccc(CNc2nc(-c3ccccc3C3CC3)nc3ccoc23)cc1 [Example 174, 2-(2-Cyclopropylphenyl)-N-(4-(5-methyl-3-(trifluoromethyl)-1H-pyrazol-1-yl)benzyl)furo[3,2-d]pyrimidin-4-amine] | 5.1 | 43.7
COc1cnc(-c2c(Cl)cnn2C(C)C)nc1N(C)CC12CCC(c3nc(C(F)(F)F)cn3C3CCC3)(CC1)OC2 [Example S12, 2-(4-Chloro-1-isopropyl-1H-pyrazol-5-yl)-N-((1-(1-cyclobutyl-4-(trifluoromethyl)-1H-imidazol-2-yl)-2-oxabicyclo[2.2.2]oct-4-yl)methyl)-5-methoxy-N-methylpyrimidin-4-amine] | 35 | 168
COc1cc(CNc2nc(-c3c(OC)ncnc3C3CC3)nc3ccoc23)ccc1-n1nc(C(F)(F)F)cc1C [Example 122, 2-(4-Cyclopropyl-6-methoxypyrimidin-5-yl)-N-(3-methoxy-4-(5-methyl-3-(trifluoromethyl)-1H-pyrazol-1-yl)benzyl)furo[3,2-d]pyrimidin-4-amine] | 13 | 82.8
COc1ncnc(C2CC2)c1-c1nc(NCc2ccc(-c3nc(C(F)F)cn3C)cc2)c2occc2n1 [Example 123, 2-(4-Cyclopropyl-6-methoxypyrimidin-5-yl)-N-(4-(4-(difluoromethyl)-1-methyl-1H-imidazol-2-yl)benzyl)furo[3,2-d]pyrimidin-4-amine] | 20 | 169
CC(C)c1ccccc1-c1ncc(C#N)c(NCc2ccc(-c3nc(C(F)(F)F)cn3C)cc2)n1 [Example 39, 2-(2-Isopropylphenyl)-4-((4-(1-methyl-4-(trifluoromethyl)-1H-imidazol-2-yl)benzyl)amino)pyrimidine-5-carbonitrile] | 2.8 | 56.9
COc1cnc(-c2c(OC)ncnc2C2CC2)nc1NCc1ccc(-c2nc(C)cn2C(F)F)cc1 [Example 105, 4'-Cyclopropyl-N-(4-(1-(difluoromethyl)-4-methyl-1H-imidazol-2-yl)benzyl)-5,6'-dimethoxy-[2,5'-bipyrimidin]-4-amine] | 60 | 124
COc1cnc(-c2ccccc2C(C)C)nc1N(C)Cc1ccc(-c2nc(C(F)(F)F)cn2C)cc1 [Example 3, 2-(2-Isopropylphenyl)-5-methoxy-N-methyl-N-(4-(1-methyl-4-(trifluoromethyl)-1H-imidazol-2-yl)benzyl)pyrimidin-4-amine] | 2.8 | 6.4
Cn1cc(C(F)(F)F)nc1-c1ccc(CNc2nc(-c3ccccc3C3CC3)nc3ccoc23)cc1 [Example 173, 2-(2-Cyclopropylphenyl)-N-(4-(1-methyl-4-(trifluoromethyl)-1H-imidazol-2-yl)benzyl)furo[3,2-d]pyrimidin-4-amine] | 1 | 23.6
COc1cnc(-c2ccccc2C(C)C)nc1NCC1CCN(c2ccccn2)CC1 [Example 5, 2-(2-Isopropylphenyl)-5-methoxy-N-((1-(pyridin-2-yl)piperidin-4-yl)methyl)pyrimidin-4-amine] | 7.6 | 113
COc1cc(CNc2nc(-c3c(OC)ncnc3C3CC3)nc3ccoc23)ccc1-c1nc(C(F)(F)F)cn1C [Example 120, 2-(4-Cyclopropyl-6-methoxypyrimidin-5-yl)-N-(3-methoxy-4-(1-methyl-4-(trifluoromethyl)-1H-imidazol-2-yl)benzyl)furo[3,2-d]pyrimidin-4-amine] | 8.9 | 50.5
COc1cnn(C(C)C)c1-c1nc(NCc2ccc(-n3nc(C(F)(F)F)cc3C)cc2)c2occc2n1 [Example 182, 2-(1-Isopropyl-4-methoxy-1H-pyrazol-5-yl)-N-(4-(5-methyl-3-(trifluoromethyl)-1H-pyrazol-1-yl)benzyl)furo[3,2-d]pyrimidin-4-amine] | 7.4 | 6
COc1cnc(-c2cccnc2C2CC2)nc1NCc1ccc(-c2nc(C(F)(F)F)cn2C)cc1 [Example 153, 2-(2-Cyclopropylpyridin-3-yl)-5-methoxy-N-(4-(1-methyl-4-(trifluoromethyl)-1H-imidazol-2-yl)benzyl)pyrimidin-4-amine] | 3.4 | 25.4
Cc1cc(C(F)(F)F)nn1-c1ccc(CNc2nc(-c3ccccc3C(C)C)nc3ccoc23)cc1 [Example 57, 2-(2-Isopropylphenyl)-N-(4-(5-methyl-3-(trifluoromethyl)-1H-pyrazol-1-yl)benzyl)furo[3,2-d]pyrimidin-4-amine] | 4.4 | 48.3
CCOCCOc1ccc(CNc2nc(-c3c(OC)ncnc3C3CC3)nc3ccoc23)cc1 [Example 117, 2-(4-Cyclopropyl-6-methoxypyrimidin-5-yl)-N-(4-(2-ethoxyethoxy)benzyl)furo[3,2-d]pyrimidin-4-amine] | 13.8 | 278
COc1cc(CNc2nc(-c3ccccc3C(C)C)ncc2OC)ccc1-n1nc(C(F)(F)F)cc1C [Example 69, 2-(2-Isopropylphenyl)-5-methoxy-N-(3-methoxy-4-(5-methyl-3-(trifluoromethyl)-1H-pyrazol-1-yl)benzyl)pyrimidin-4-amine] | 9.2 | 709
COc1ncnc(C2CC2)c1-c1ncc(OC(F)F)c(NCc2ccc(-n3nc(C(F)(F)F)cc3C)cc2)n1 [Example 135, 4'-Cyclopropyl-5-(difluoromethoxy)-6'-methoxy-N-(4-(5-methyl-3-(trifluoromethyl)-1H-pyrazol-1-yl)benzyl)-[2,5'-bipyrimidin]-4-amine] | 3.2 | 15.8
COc1cnc(-c2c(OC)cnn2C(C)C)nc1NCC1CCN(c2nc(C(F)(F)F)cn2C)CC1 [Example 179, 2-(1-Isopropyl-4-methoxy-1H-pyrazol-5-yl)-5-methoxy-N-((1-(1-methyl-4-(trifluoromcthyl)-1H-imidazol-2-yl)piperidin-4-yl)methyl)pyrimidin-4-amine] | 56 | 197
COc1ncnc(C2CC2)c1-c1ncc(Cl)c(NCc2ccc(-c3nc(C(F)(F)F)cn3CF)cc2)n1 [Example 126, 5-Chloro-4'-cyclopropyl-N-(4-(1-(fluoromethyl)-4-(trifluoromethyl)-1H-imidazol-2-yl)benzyl)-6'-methoxy-[2,5'-bipyrimidin]-4-amine] | 13 | 22.7
COc1cnc(-c2c(Cl)cnn2C2CC2)nc1NCc1ccc(-c2nc(C(F)(F)F)cn2C)cc1 [Example 192, 2-(4-Chloro-1-cyclopropyl-1H-pyrazol-5-yl)-5-methoxy-N-(4-(1-methyl-4-(trifluoromethyl)-1H-imidazol-2-yl)benzyl)pyrimidin-4-amine] | 3.8 | 20.4
